Measured values: patent publication EP4562003B1, “NOVEL 7-SUBSTITUTED INDOLE SULFONAMIDE DERIVATIVES” (F. Hoffmann-La Roche AG, priority 2022, dated 2024)

These compounds were tested against human GPR17 short isoform (Homo sapiens, UniProt Q13304) (assay: GPR17 cAMP assay (TR-FRET cAMP quantification, antagonist mode)). Details: CHO-K1 cells stably expressing human GPR17 short isoform; EC80 of agonist MDL29,951; forskolin 15µM; IBMX 0.5mM; 30 minutes at room temperature; read-out: hGPR17 cAMP IC50.
Type: cell-based
Protocol: GPR17 cAMP Assay Protocol:
CHO-K1 cells stably expressing vector containing untagged human GPR17 short isoform (Roche) were cultured at 37°C / 5% CO2 in DMEM (Dulbecco's Modified Eagle Medium):F-12 (1:1) supplemented with 10% foetal bovine serum and 400 µg/ml Geneticin.
Changes in intracellular cyclic adenosine monophosphate (cAMP) levels were quantified using the Nano-TRF Detection Assay kit (Roche Diagnostics, Cat. No. 05214386001). This assay allows for direct cAMP quantification in a homogeneous solution. cAMP is detected based on time-resolved fluorescence energy transfer (TR-FRET) and competitive binding of ruthenylated cAMP and endogenous cAMP to an anti-cAMP monoclonal antibody labeled with AlexaFluor-700. The Ruthenium complex serves as the FRET donor and transfers energy to AlexaFluor-700. The FRET signal is inversely proportional to the cAMP concentration.
CHO-GPR17S cells were detached with Accutase and resuspended in assay buffer consisting of Hank's Balanced Salt Solution (HBSS), 10mM HEPES (4-(2-hydroxyethyl) piperazine-1-ethanesulfonic acid solution) and 0.1% bovine serum albumin (pH 7.4). The cells were seeded in black 384-well plates (Corning) at a density of 10'000 cells / 20µl assay buffer until the addition of compounds.
Test antagonist compounds were serially diluted in dimethyl sulfoxide (DMSO) and spotted in 384-well plates. The compounds were then diluted in HBSS buffer supplemented with an EC80 concentration of MDL29,951 (3-(2-Carboxy-4,6-dichloroindol-3-yl)propionic acid) (GPR17 agonist) plus 3-Isobutyl-1-methylxanthine (IBMX) (0.5mM final concentration) and added to the cells at room temperature. Forskolin (15µM final concentration) was added 5 minutes after the test compounds and the cells were incubated at room temperature for 30 minutes. The assay was stopped by adding cAMP detection mix (containing detergents for cell lysis) for 90 minutes at room temperature.
Cellular cAMP was measured using a Paradigm reader (Molecular Devices). The raw data was used to calculate the FRET signal based on the assay's P-factor as per cAMP kit instructions. The data was normalized to the maximal activity of a reference antagonist and dose response curves were fitted to the percent activity of the test compounds using a sigmoidal dose response model (Genedata Screener).
Results in the hGPR17 cAMP assay are provided for compounds of formula I in Table 1 Table 1: […]

Sequence of human GPR17 short isoform (Q13304 29-367): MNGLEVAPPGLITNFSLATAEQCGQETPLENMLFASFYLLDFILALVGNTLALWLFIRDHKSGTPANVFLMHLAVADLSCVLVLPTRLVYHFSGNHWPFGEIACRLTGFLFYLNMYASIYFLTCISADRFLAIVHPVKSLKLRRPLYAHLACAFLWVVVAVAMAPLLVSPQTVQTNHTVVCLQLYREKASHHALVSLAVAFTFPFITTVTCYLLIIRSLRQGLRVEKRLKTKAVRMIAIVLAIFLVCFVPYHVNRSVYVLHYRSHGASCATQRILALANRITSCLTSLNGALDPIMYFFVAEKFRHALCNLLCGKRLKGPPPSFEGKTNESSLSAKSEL

Row | Compound | IC50
1 | COc1nc(NS(=O)(=O)c2c[nH]c3c(-c4nccn4C)c(Cl)ccc23)nc(OC)c1OCC(F)F [Example 8, 6-chloro-N-[5-(2,2-difluoroethoxy)-4,6-dimethoxy-pyrimidin-2-yl]-7-(1-methylimidazol-2-yl)-1H-indole-3-sulfonamide] | 39 nM
2 | COc1nc(NS(=O)(=O)c2c[nH]c3c(-c4ncccn4)c(Br)ccc23)nc(OC)c1OC(F)F [Example 36, 6-bromo-N-[5-(difluoromethoxy)-4,6-dimethoxy-pyrimidin-2-yl]-7-(2-pyrimidyl)-1H-indole-3-sulfonamide] | 42 nM
3 | COc1nc(NS(=O)(=O)c2c[nH]c3c(-c4cnccn4)c(F)ccc23)nc(OC)c1OC(F)F [Example 34, N-[5-(difluoromethoxy)-4,6-dimethoxy-pyrimidin-2-yl]-6-fluoro-7-pyrazin-2-yl-1H-indole-3-sulfonamide] | 407 nM
4 | COc1nc(NS(=O)(=O)c2c[nH]c3c(-c4cnccn4)c(F)ccc23)nc(OC)c1OCC(F)F [Example 33, N-[5-(2,2-difluoroethoxy)-4,6-dimethoxy-pyrimidin-2-yl]-6-fluoro-7-pyrazin-2-yl-1H-indole-3-sulfonamide] | 132 nM
5 | COc1nc(NS(=O)(=O)c2c[nH]c3c(-c4cnccn4)c(Cl)ccc23)nc(OC)c1CC(F)F [Example 15, 6-chloro-N-[5-(2,2-difluoroethyl)-4,6-dimethoxy-pyrimidin-2-yl]-7-pyrazin-2-yl-1H-indole-3-sulfonamide] | 27 nM
6 | COc1nc(NS(=O)(=O)c2c[nH]c3c(-c4cnccn4)cccc23)nc(OC)c1OCC(F)F [Example 30, N-[5-(2,2-difluoroethoxy)-4,6-dimethoxy-pyrimidin-2-yl]-7-pyrazin-2-yl-1H-indole-3-sulfonamide] | 130 nM
7 | COc1nc(NS(=O)(=O)c2c[nH]c3c(-c4cnccn4)c(Cl)ccc23)nc(OC)c1OCCF [Example 21, 6-chloro-N-[5-(2-fluoroethoxy)-4,6-dimethoxy-pyrimidin-2-yl]-7-pyrazin-2-yl-1H-indole-3-sulfonamide] | 40 nM
8 | COc1nc(NS(=O)(=O)c2c[nH]c3c(-c4ccccn4)c(Cl)ccc23)nc(OC)c1OCC(F)F [Example 19, 6-chloro-N-[5-(2,2-difluoroethoxy)-4,6-dimethoxy-pyrimidin-2-yl]-7-(2-pyridyl)-1H-indole-3-sulfonamide] | 18 nM
9 | COc1nc(NS(=O)(=O)c2c[nH]c3c(-c4cccnn4)cccc23)nc(OC)c1OCC(F)F [Example 12, N-[5-(2,2-difluoroethoxy)-4,6-dimethoxy-pyrimidin-2-yl]-7-pyridazin-3-yl-1H-indole-3-sulfonamide] | 85 nM
10 | COc1nc(NS(=O)(=O)c2c[nH]c3c(-c4cccnn4)c(Cl)ccc23)nc(OC)c1CC(F)F [Example 6, 6-chloro-N-[5-(2,2-difluoroethyl)-4,6-dimethoxy-pyrimidin-2-yl]-7-pyridazin-3-yl-1H-indole-3-sulfonamide] | 42 nM
11 | COc1nc(NS(=O)(=O)c2c[nH]c3c(-c4ncccn4)c(Cl)ccc23)nc(OC)c1CC(F)F [Example 3, 6-chloro-N-[5-(2,2-difluoroethyl)-4,6-dimethoxy-pyrimidin-2-yl]-7-(2-pyrimidyl)-1H-indole-3-sulfonamide] | 46 nM

Now from value to compound:

Row | IC50 | Compound
12 | 46 nM | COc1nc(NS(=O)(=O)c2c[nH]c3c(-c4ccnnc4)c(Cl)ccc23)nc(OC)c1OCC(F)F [Example 95, 6-chloro-N-[5-(2,2-difluoroethoxy)-4,6-dimethoxy-pyrimidin-2-yl]-7-pyridazin-4-yl-1H-indole-3-sulfonamide]
13 | 122 nM | COc1nc(NS(=O)(=O)c2c[nH]c3c(-c4ncccn4)c(Cl)ccc23)nc(OC)c1OCC#N [Example 78, 6-chloro-N-[5-(cyanomethoxy)-4,6-dimethoxy-pyrimidin-2-yl]-7-(2-pyrimidyl)-1H-indole-3-sulfonamide]
14 | 59 nM | COc1nc(NS(=O)(=O)c2c[nH]c3c(-c4ncccn4)c(Cl)ccc23)nc(OC)c1CCC#N [Example 79, 6-chloro-N-[5-(2-cyanoethyl)-4,6-dimethoxy-pyrimidin-2-yl]-7-(2-pyrimidyl)-1H-indole-3-sulfonamide]
15 | 225 nM | COc1nc(NS(=O)(=O)c2c[nH]c3c(-c4cnc(Cl)cn4)c(Cl)ccc23)nc(OC)c1CC(F)F [Example 91, 6-chloro-7-(5-chloropyrazin-2-yl)-N-[5-(2,2-difluoroethyl)-4,6-dimethoxy-pyrimidin-2-yl]-1H-indole-3-sulfonamide]
16 | 54 nM | COc1nc(NS(=O)(=O)c2c[nH]c3c(-c4ncccc4C)c(Cl)ccc23)nc(OC)c1OC(F)F [Example 103, 6-chloro-N-[5-(difluoromethoxy)-4,6-dimethoxy-pyrimidin-2-yl]-7-(3-methyl-2-pyridyl)-1H-indole-3-sulfonamide]
17 | 22 nM | COc1nc(NS(=O)(=O)c2c[nH]c3c(-c4ncccn4)c(C)ccc23)nc(OC)c1CC(F)F [Example 52, N-[5-(2,2-difluoroethyl)-4,6-dimethoxy-pyrimidin-2-yl]-6-methyl-7-(2-pyrimidyl)-1H-indole-3-sulfonamide]
18 | 260 nM | COc1nc(NS(=O)(=O)c2c[nH]c3c(-c4ncccn4)c(Cl)ccc23)ncc1OCCF [Example 80, 6-chloro-N-[5-(2-fluoroethoxy)-4-methoxy-pyrimidin-2-yl]-7-(2-pyrimidyl)-1H-indole-3-sulfonamide]
19 | 86 nM | COc1nc(NS(=O)(=O)c2c[nH]c3c(-c4ncccn4)c(C)ccc23)nc(OC)c1OCC(F)F [Example 48, N-[5-(2,2-difluoroethoxy)-4,6-dimethoxy-pyrimidin-2-yl]-6-methyl-7-(2-pyrimidyl)-1H-indole-3-sulfonamide]
20 | 24 nM | COc1nc(NS(=O)(=O)c2c[nH]c3c(-c4ccncn4)c(Cl)ccc23)nc(OC)c1OCC(F)F [Example 77, 6-chloro-N-[5-(2,2-difluoroethoxy)-4,6-dimethoxy-pyrimidin-2-yl]-7-(4-pyrimidyl)-1H-indole-3-sulfonamide]
21 | 23 nM | COc1nc(NS(=O)(=O)c2c[nH]c3c(-c4ccn(C)n4)c(Cl)ccc23)nc(OC)c1OCC(F)F [Example 61, 6-chloro-N-[5-(2,2-difluoroethoxy)-4,6-dimethoxy-pyrimidin-2-yl]-7-(1-methylpyrazol-3-yl)-1H-indole-3-sulfonamide]
22 | 129 nM | COc1nc(NS(=O)(=O)c2c[nH]c3c(-c4cnoc4)c(Cl)ccc23)nc(OC)c1OC(F)F [Example 119, 6-chloro-N-[5-(difluoromethoxy)-4,6-dimethoxy-pyrimidin-2-yl]-7-isoxazol-4-yl-1H-indole-3-sulfonamide]
23 | 31 nM | COc1nc(NS(=O)(=O)c2c[nH]c3c(-c4cncc(C)n4)c(Cl)ccc23)nc(OC)c1OC(F)F [Example 87, 6-chloro-N-[5-(difluoromethoxy)-4,6-dimethoxy-pyrimidin-2-yl]-7-(6-methylpyrazin-2-yl)-1H-indole-3-sulfonamide]
24 | 157 nM | COc1nc(NS(=O)(=O)c2c[nH]c3c(-c4ncccn4)c(C)ccc23)nc(OC)c1OC(F)F [Example 55, N-[5-(difluoromethoxy)-4,6-dimethoxy-pyrimidin-2-yl]-6-methyl-7-(2-pyrimidyl)-1H-indole-3-sulfonamide]
25 | 54 nM | COc1nc(NS(=O)(=O)c2c[nH]c3c(-c4ncccn4)c(Br)ccc23)nc(OC)c1OCC(F)F [Example 38, 6-bromo-N-[5-(2,2-difluoroethoxy)-4,6-dimethoxy-pyrimidin-2-yl]-7-(2-pyrimidyl)-1H-indole-3-sulfonamide]
26 | 97 nM | COc1nc(NS(=O)(=O)c2c[nH]c3c(-c4cnc(C)cn4)c(Cl)ccc23)nc(OC)c1OC(F)F [Example 83, 6-chloro-N-[5-(difluoromethoxy)-4,6-dimethoxy-pyrimidin-2-yl]-7-(5-methylpyrazin-2-yl)-1H-indole-3-sulfonamide]
27 | 64 nM | COc1nc(NS(=O)(=O)c2c[nH]c3c(-c4nccnc4C)cccc23)nc(OC)c1OCC(F)F [Example 54, N-[5-(2,2-difluoroethoxy)-4,6-dimethoxy-pyrimidin-2-yl]-7-(3-methylpyrazin-2-yl)-1H-indole-3-sulfonamide]
28 | 42 nM | COc1nc(NS(=O)(=O)c2c[nH]c3c(-c4ncccc4C)c(Cl)ccc23)nc(OC)c1CC(F)F [Example 102, 6-chloro-N-[5-(2,2-difluoroethyl)-4,6-dimethoxy-pyrimidin-2-yl]-7-(3-methyl-2-pyridyl)-1H-indole-3-sulfonamide]
